Test results taken from patent US12441725B2, “ISO-citrate dehydrogenase (IDH) inhibitor” (ZHEJIANG METON PHARMACEUTICAL CO., LTD, priority 2019, dated 2025).

Key:
[1] = molecular target: T1, IDH1 R132C (Homo sapiens, UniProt O75874, R132C); experiment: Biochemical assay for IDH inhibition (NADPH fluorescence), mutant IDH1 R132C; conditions: 25 nM IDH1-R132C, 1 hour pre-incubation, in triplet
T1 construct: 6xHis
Procedure, shortened: (§1)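 Mutant enzyme (25 nM R132C or 50 nM R132H) was preincubated 1 h at room temperature with compound in pH 7.5 Tris buffer containing 1.33 mM α-KG, and the reaction was then started with NADPH (80 μM solution). NADPH consumption was followed by fluorescence (Ex 340/Em 460 nm) for 15 min. IC50 was derived from background-corrected linear rates relative to vehicle, run in triplicate.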

[2] = molecular target: T2, IDH (endogenous IDH1 R132C) in HT1080 cell (Homo sapiens, UniProt O75874, R132C); experiment: Cell-based assay for IDH inhibition (decrease of D-2-HG) in HT1080 cells; conditions: human fibrosarcoma cell line HT1080, 16 hours treatment, D-2-HG by LC-MS, in triplet
T2 construct: which harbor endogenous heterozygous IDH1 R132C and R132H mutation respectively and accumulate D-2-HG
T2 sequence (O75874 2-414 R132C): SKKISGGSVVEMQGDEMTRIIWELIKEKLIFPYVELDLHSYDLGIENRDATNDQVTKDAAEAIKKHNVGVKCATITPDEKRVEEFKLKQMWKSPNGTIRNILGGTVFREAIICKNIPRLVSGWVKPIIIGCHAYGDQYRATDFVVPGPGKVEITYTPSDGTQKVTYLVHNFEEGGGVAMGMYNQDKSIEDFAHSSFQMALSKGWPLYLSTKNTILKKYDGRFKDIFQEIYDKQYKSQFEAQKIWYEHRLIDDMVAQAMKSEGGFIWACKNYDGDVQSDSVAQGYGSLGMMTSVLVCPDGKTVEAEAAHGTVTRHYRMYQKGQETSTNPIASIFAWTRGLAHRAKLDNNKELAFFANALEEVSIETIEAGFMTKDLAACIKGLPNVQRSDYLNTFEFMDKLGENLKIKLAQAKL
Procedure, shortened: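 HT1080 cells with endogenous IDH1 R132C, grown in DMEM/10% FBS, treated with compound at several concentrations for 16 h. Metabolites extracted in cold 40% methanol/40% acetonitrile and D-2-HG measured by HILIC LC-MS/MS, normalized to glutamate. IC50 from D-2-HG relative to DMSO controls; run in triplicate.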

[3] = molecular target: T3, IDH1 R132H (Homo sapiens, UniProt O75874, R132H); experiment: Biochemical assay for IDH inhibition (NADPH fluorescence), mutant IDH1 R132H; conditions: 50 nM IDH1-R132H, 1 hour pre-incubation, in triplet
T3 construct: 6xHis
T3 sequence (O75874 whole entry R132H): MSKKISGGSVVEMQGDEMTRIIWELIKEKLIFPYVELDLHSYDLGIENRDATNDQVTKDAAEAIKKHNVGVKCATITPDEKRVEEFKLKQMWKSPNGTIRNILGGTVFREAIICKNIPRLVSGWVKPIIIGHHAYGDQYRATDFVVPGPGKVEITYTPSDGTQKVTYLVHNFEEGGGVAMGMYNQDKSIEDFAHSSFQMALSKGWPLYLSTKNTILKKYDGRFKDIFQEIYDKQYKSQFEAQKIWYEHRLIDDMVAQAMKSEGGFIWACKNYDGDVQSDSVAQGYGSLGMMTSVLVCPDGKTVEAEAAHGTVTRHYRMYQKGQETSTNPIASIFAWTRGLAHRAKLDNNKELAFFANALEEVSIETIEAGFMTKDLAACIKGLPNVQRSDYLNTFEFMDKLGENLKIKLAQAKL
Procedure, shortened: as §1

T1 sequence (O75874 whole entry R132C): as the sequence (O75874 whole entry R132H) above, with H132C counted along it

IC50 [1] [nM] | IC50 [2] [nM] | IC50 [3] [nM] | Structure (SMILES)
> 1000 | > 1000 | > 1000 | CCN1Cc2c(ccnc2N[C@@H](C)c2ccc(-c3ccc(C)cn3)c(F)c2)C1=O [Compound 82, (S)-2-ethyl-4-((1-(3-fluoro-4-(5-methylpyridin-2-yl)phenyl)ethyl)amino)-2,3-dihydro-1H-pyrrolo[3,4-c]pyridin-1-one]
> 1000 | > 1000 | 500 to 1000 | CCN1Cc2c(ccnc2N[C@@H](C)c2cc(F)c(-c3ccnc(C(F)(F)F)c3)cc2F)C1=O [Compound 88, (S)-4-((1-(2,5-difluoro-4-(2-(trifluoromethyl)pyridin-4-yl)phenyl)ethyl)amino)-2-ethyl-2,3-dihydro-1H-pyrrolo[3,4-c]pyridin-1-one]
100 to 500 | 500 to 1000 | < 100 | CCN1Cc2c(ccnc2N[C@@H](C)c2cc(F)c(-c3cc(C(F)(F)F)cc(Cl)n3)cc2F)C1=O [Compound 121, (S)-4-((1-(4-(6-chloro-4-(trifluoromethyl)pyridin-2-yl)-2,5-difluorophenyl)ethyl)amino)-2-ethyl-2,3-dihydro-1H-pyrrolo[3,4-c]pyridin-1-one]
100 to 500 | 100 to 500 | < 100 | C[C@H](Nc1nccc2c1CN([C@H](C)CF)C2=O)c1ccc(-c2ccnc(C(C)(C)C)c2)c(F)c1 [Compound 40, 4-(((S)-1-(4-(2-(tert-butyl)pyridin-4-yl)-3-fluorophenyl)ethyl)amino)-2-((R)-1-fluoropropan-2-yl)-2,3-dihydro-1H-pyrrolo[3,4-c]pyridin-1-one]
> 1000 | > 1000 | > 1000 | CCN1Cc2c(ccnc2N[C@@H](C)c2ncc(-c3ccc(F)c(C)c3)cn2)C1=O [Compound 48, (S)-2-ethyl-4-((1-(5-(4-fluoro-3-methylphenyl)pyrimidin-2-yl)ethyl)amino)-2,3-dihydro-1H-pyrrolo[3,4-c]pyridin-1-one]
< 100 | < 100 | < 100 | C/C=C(\c1ccnc(-c2cc(F)c([C@H](C)Nc3nccc4c3CN(CC)C4=O)cc2F)c1)C(F)(F)F [Compound 125, (S,E)-4-((1-(2,5-difluoro-4-(4-(1,1,1-trifluorobut-2-en-2-yl)pyridin-2-yl)phenyl)ethyl)amino)-2-ethyl-2,3-dihydro-1H-pyrrolo[3,4-c]pyridin-1-one]
> 1000 | > 1000 | > 1000 | CCN1Cc2c(ccnc2N[C@@H](C)c2ncc(-c3cccc(C)c3F)cn2)C1=O [Compound 49, (S)-2-ethyl-4-((1-(5-(2-fluoro-3-methylphenyl)pyrimidin-2-yl)ethyl)amino)-2,3-dihydro-1H-pyrrolo[3,4-c]pyridin-1-one]
> 1000 | > 1000 | > 1000 | CCN1Cc2c(ccnc2N[C@@H](C)c2ccc(-c3cc(C)nc(C)c3)c(F)c2)C1=O [Compound 76, (S)-4-((1-(4-(2,6-dimethylpyridin-4-yl)-3-fluorophenyl)ethyl)amino)-2-ethyl-2,3-dihydro-1H-pyrrolo[3,4-c]pyridin-1-one]
< 100 | < 100 | < 100 | CCN1Cc2c(ccnc2N[C@@H](C)c2cc(F)c(-c3cc4c(cn3)COC4(C)C)cc2F)C1=O [Compound 146, (S)-4-((1-(4-(1,1-dimethyl-1,3-dihydrofuro[3,4-c]pyridin-6-yl)-2,5-difluorophenyl)ethyl)amino)-2-ethyl-2,3-dihydro-1H-pyrrolo[3,4-c]pyridin-1-one]
> 1000 | > 1000 | > 1000 | CCN1Cc2c(ccnc2N[C@@H](C)c2ccc(N(C)c3ccccc3)c(F)c2)C1=O [Compound 31, (S)-2-ethyl-4-((1-(3-fluoro-4-(methyl(phenyl)amino)phenyl)ethyl)amino)-2,3-dihydro-1H-pyrrolo[3,4-c]pyridin-1-one]
100 to 500 | 500 to 1000 | 100 to 500 | CCN1Cc2c(ccnc2N[C@@H](C)c2cc(F)c(Oc3ccc(C)cc3)cc2F)C1=O [Compound 20, (S)-4-((1-(2,5-difluoro-4-(p-tolyloxy)phenyl)ethyl)amino)-2-ethyl-2,3-dihydro-1H-pyrrolo[3,4-c]pyridin-1-one]
< 100 | < 100 | < 100 | CCN1Cc2c(ccnc2N[C@@H](C)c2cc(F)c(-c3cc(C(C)(C)F)cc(OC)n3)cc2F)C1=O [Compound 120, (S)-4-((1-(2,5-difluoro-4-(4-(2-fluoropropan-2-yl)-6-methoxypyridin-2-yl)phenyl)ethyl)amino)-2-ethyl-2,3-dihydro-1H-pyrrolo[3,4-c]pyridin-1-one]
100 to 500 | 500 to 1000 | 100 to 500 | CCN1Cc2c(ccnc2N[C@@H](C)c2ccc(-c3ccnc(C4CCC4)c3)c(F)c2)C1=O [Compound 77, (S)-4-((1-(4-(2-cyclobutylpyridin-4-yl)-3-fluorophenyl)ethyl)amino)-2-ethyl-2,3-dihydro-1H-pyrrolo[3,4-c]pyridin-1-one]
> 1000 | > 1000 | > 1000 | CCN1Cc2c(ccnc2N[C@@H](C)c2ccc(-c3ccc(C(F)(F)F)nc3)c(F)c2)C1=O [Compound 75, (S)-2-ethyl-4-((1-(3-fluoro-4-(6-(trifluoromethyl)pyridin-3-yl)phenyl)ethyl)amino)-2,3-dihydro-1H-pyrrolo[3,4-c]pyridin-1-one]
100 to 500 | 100 to 500 | < 100 | CCN1Cc2c(ccnc2N[C@@H](C)c2cc(F)c(-c3cc(C(C)(C)F)ncn3)cc2F)C1=O [Compound 130, (S)-4-((1-(2,5-difluoro-4-(6-(2-fluoropropan-2-yl)pyrimidin-4-yl)phenyl)ethyl)amino)-2-ethyl-2,3-dihydro-1H-pyrrolo[3,4-c]pyridin-1-one]
100 to 500 | > 1000 | 100 to 500 | CCN1Cc2c(ccnc2N[C@@H](C)c2ccc(Oc3ccc4c(c3)cc(C)n4C)c(F)c2)C1=O [Compound 11, (S)-4-((1-(4-((1,2-dimethyl-1H-indol-5-yl)oxy)-3-fluorophenyl)ethyl)amino)-2-ethyl-2,3-dihydro-1H-pyrrolo[3,4-c]pyridin-1-one]
100 to 500 | 100 to 500 | < 100 | CCN1Cc2c(ccnc2N[C@@H](C)c2ccc(-c3ccnc(C(C)(C)C)c3)c(F)c2F)C1=O [Compound 42, (S)-4-((1-(4-(2-(tert-butyl)pyridin-4-yl)-2,3-difluorophenyl)ethyl)amino)-2-ethyl-2,3-dihydro-1H-pyrrolo[3,4-c]pyridin-1-one]
100 to 500 | 100 to 500 | < 100 | CCN1Cc2c(ccnc2N[C@@H](C)c2cc(F)c(-c3cc(C(F)(F)F)cc(OC)n3)cc2F)C1=O [Compound 142, (S)-4-((1-(2,5-difluoro-4-(6-methoxy-4-(trifluoromethyl)pyridin-2-yl)phenyl)ethyl)amino)-2-ethyl-2,3-dihydro-1H-pyrrolo[3,4-c]pyridin-1-one]
< 100 | 100 to 500 | < 100 | CCN1Cc2c(ccnc2N[C@@H](C)c2cc(F)c(-c3ccnc(C(F)(F)C(F)(F)F)c3)cc2F)C1=O [Compound 107, (S)-4-((1-(2,5-difluoro-4-(2-(perfluoroethyl)pyridin-4-yl)phenyl)ethyl)amino)-2-ethyl-2,3-dihydro-1H-pyrrolo[3,4-c]pyridin-1-one]
500 to 1000 | > 1000 | 500 to 1000 | Cc1ccc(Oc2ccc([C@H](C)Nc3nccc4c3CN(CCF)C4=O)cc2F)cc1 [Compound 16, (S)-4-((1-(3-fluoro-4-(p-tolyloxy)phenyl)ethyl)amino)-2-(2-fluoroethyl)-2,3-dihydro-1H-pyrrolo[3,4-c]pyridin-1-one]
> 1000 | > 1000 | > 1000 | CCN1Cc2c(ccnc2N[C@@H](C)c2ccc(Oc3ccc4c(c3)ncn4C)c(F)c2)C1=O [Compound 8, (S)-2-ethyl-4-((1-(3-fluoro-4-((1-methyl-1H-benzo[d]imidazol-5-yl)oxy)phenyl)ethyl)amino)-2,3-dihydro-1H-pyrrolo[3,4-c]pyridin-1-one]
< 100 | < 100 | < 100 | CCN1Cc2c(ccnc2N[C@@H](C)c2cc(F)c(-c3cc(C4(F)CC4)cc(C)n3)cc2F)C1=O [Compound 131, (S)-4-((1-(2,5-difluoro-4-(4-(1-fluorocyclopropyl)-6-methylpyridin-2-yl)phenyl)ethyl)amino)-2-ethyl-2,3-dihydro-1H-pyrrolo[3,4-c]pyridin-1-one]
500 to 1000 | > 1000 | 100 to 500 | CCN1Cc2c(ccnc2N[C@@H](C)c2ccc(OC3CCCC3)c(F)c2)C1=O [Compound 15, (S)-4-((1-(4-(cyclopentyloxy)-3-fluorophenyl)ethyl)amino)-2-ethyl-2,3-dihydro-1H-pyrrolo[3,4-c]pyridin-1-one]

Structure (SMILES) | IC50 [1] [nM] | IC50 [2] [nM] | IC50 [3] [nM]
CCN1Cc2c(ccnc2N[C@@H](C)c2cc(F)c(-c3cc(OC(C)(C)C)c(Cl)cn3)cc2F)C1=O [Compound 152, (S)-4-((1-(4-(4-(tert-butoxy)-5-chloropyridin-2-yl)-2,5-difluorophenyl)ethyl)amino)-2-ethyl-2,3-dihydro-1H-pyrrolo[3,4-c]pyridin-1-one] | < 100 | < 100 | < 100
